Key:
[1] = target: human FPR2 (Homo sapiens (Human), UniProt P25090); experiment: FPR2 cyclic adenosine monophosphate (cAMP) assay; format: cell-based; conditions: CHO cells overexpressing human FPR2; forskolin 5 µM; inhibition of cAMP production; read-out: hFPR2 cAMP2 EC50
Text: (§1) N-formyl peptide receptors (FPRs) are a family of chemo attractant receptors that facilitate leukocyte response during inflammation. FPRs belong to the seven-transmembrane G protein-coupled receptor superfamily and are linked to inhibitory G-proteins (Gi). Three family members (FPR1, FPR2 and FPR3) have been identified in humans and are predominantly found in myeloid cells with varied distribution and have also been reported in multiple organs and tissues. After agonist binding, the FPRs activate a multitude of physiological pathways, such as intra cellular signaling transduction, Ca^2+ mobilization and transcription. The family interacts with a diverse set of ligands that includes proteins, polypeptides and fatty acid metabolites which activate both pro-inflammatory and pro-resolution downstream responses. FPR2 and FPR1 Cyclic Adenosine Monophosphate (cAMP) Assays were used to measure the activity of the compounds in this patent.
(§2) FPR2 and FPR1 Cyclic Adenosine Monophosphate (cAMP) Assays. A mixture of forskolin (5 µM final for FPR2 or 10 µM final for FPR1) and IBMX (200 µM final) were added to 384-well Proxiplates (Perkin-Elmer) pre-dotted with test compounds in DMSO (1% final) at final concentrations in the range of 0.020 nM to 100 µM. Chinese Hamster Ovary cells (CHO) overexpressing human FPR1 or human FPR2 receptors were cultured in F-12 (Ham’s) medium supplemented with 10% qualified FBS, 250 µg/ml zeocin and 300 µg/ml hygromycin (Life Technologies). Reactions were initiated by adding 2,000 human FPR2 cells per well or 4,000 human FPR1 cells per well in Dulbecco’s PBS (with calcium and magnesium) (Life Technologies) supplemented with 0.1% BSA (Perkin-Elmer). The reaction mixtures were incubated for 30 min at room temperature. The level of intracellular cAMP was determined using the HTRF HiRange cAMP assay reagent kit (Cisbio) according to manufacturer’s instruction. Solutions of cryptate conjugated anti-cAMP and d2 flurorophore-labelled cAMP were made in a supplied lysis buffer separately. Upon completion of the reaction, the cells were lysed with equal volume of the d2-cAMP solution and anti-cAMP solution. After a 1-h room temperature incubation, time-resolved fluorescence intensity was measured using the Envision (Perkin-Elmer) at 400 nm excitation and dual emission at 590 nm and 665 nm. A calibration curve was constructed with an external cAMP standard at concentrations ranging from 1 µM to 0.1 pM by plotting the fluorescent intensity ratio from 665 nm emission to the intensity from the 590 nm emission against cAMP concentrations. The potency and activity of a compound to inhibit cAMP production was then determined by fitting to a 4-parametric logistic equation from a plot of cAMP level versus compound concentrations.

[2] = target: human FPR1 (Homo sapiens (Human), UniProt P21462); experiment: FPR1 cyclic adenosine monophosphate (cAMP) assay; format: cell-based; conditions: CHO cells overexpressing human FPR1; forskolin 10 µM; inhibition of cAMP production; read-out: hFPR1 cAMP EC50
Sequence of human FPR1 (P21462 whole entry): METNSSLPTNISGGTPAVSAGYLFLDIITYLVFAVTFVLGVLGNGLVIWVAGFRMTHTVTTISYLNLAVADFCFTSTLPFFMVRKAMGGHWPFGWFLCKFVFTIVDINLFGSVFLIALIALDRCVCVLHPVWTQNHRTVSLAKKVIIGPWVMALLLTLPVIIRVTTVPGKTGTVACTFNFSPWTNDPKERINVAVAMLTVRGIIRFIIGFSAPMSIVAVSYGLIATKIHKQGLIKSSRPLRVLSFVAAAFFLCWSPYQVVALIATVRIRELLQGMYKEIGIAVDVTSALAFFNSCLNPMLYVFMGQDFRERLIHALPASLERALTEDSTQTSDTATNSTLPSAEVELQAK
Text: as §1
as §2, with “After a 1-h room temperature incubation, time-resolved fluorescence intensity was measured using the Envision (Perkin-Elmer) at 400 nm excitation and dual emission at 590 nm and 665 nm. A calibration curve was constructed with an external cAMP standard at concentrations ranging from 1 µM to 0.1 pM by plotting the fluorescent intensity ratio from 665 nm emission to the intensity from the 590 nm emission against cAMP concentrations.” left out

Sequence of human FPR2 (P25090 whole entry): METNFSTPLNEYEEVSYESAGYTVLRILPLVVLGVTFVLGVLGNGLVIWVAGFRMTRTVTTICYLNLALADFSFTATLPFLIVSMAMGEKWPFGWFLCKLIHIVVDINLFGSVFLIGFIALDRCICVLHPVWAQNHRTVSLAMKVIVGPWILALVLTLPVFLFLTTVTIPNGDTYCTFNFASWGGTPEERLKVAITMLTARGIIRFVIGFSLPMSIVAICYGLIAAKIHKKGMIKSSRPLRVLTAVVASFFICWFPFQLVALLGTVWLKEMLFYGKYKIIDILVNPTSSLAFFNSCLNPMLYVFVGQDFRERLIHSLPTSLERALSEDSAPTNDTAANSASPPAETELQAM

Row | Compound | EC50 [1] [nM] | EC50 [2] [nM]
1 | COCC(CN)n1cccc(N2C[C@@H](c3c(F)cc(OC)cc3F)[C@H](NC(=O)c3ccc(OC(F)(F)F)cc3)C2=O)c1=O (stereo partly shown) [Example 78] | 2 | 5.2
2 | CCn1cccc(N2C(=O)[C@@H](NC(=O)c3ccc(OC(F)F)cc3)[C@H](c3c(F)cc(OC)cc3F)[C@@H]2C)c1=O [Example 80] | 2.1 | 130
3 | CCn1cccc(N2C[C@@H](c3ccc(OC)cc3F)[C@H](NC(=O)c3ccc(OC(F)F)cc3)C2=O)c1=O [Example 83] | 2.2 | 7.6
4 | COc1cc(F)c([C@@H]2CN(c3nc(NC4CCOC4)ccc3F)C(=O)[C@H]2NC(=O)c2ccc(OC(F)(F)F)cc2)c(F)c1 (stereo partly shown) [Example 84] | 2.3 | 120
5 | COc1cc(F)c([C@@H]2CN(c3c(C)ccn(CC(F)F)c3=O)C(=O)[C@H]2NC(=O)c2ccc(OC(F)(F)F)cc2)c(F)c1 [Example 86] | 2.3 | 4.1
6 | COc1cc(F)c([C@@H]2CN(c3ccc[nH]c3=O)C(=O)[C@H]2NC(=O)c2ccc(Cl)cc2)c(F)c1 [Example 87] | 2.3 | 750
7 | COc1cc(F)c([C@@H]2CN(c3c(C)ccn(CC(F)F)c3=O)C(=O)[C@H]2NC(=O)c2ccc(OC(F)F)cc2)c(F)c1 [Example 90] | 2.5 | 3.5
8 | COCC(C(=O)N(C)C)n1cccc(N2C[C@@H](c3c(F)cc(OC)cc3F)[C@H](NC(=O)c3ccc(OC(F)F)cc3)C2=O)c1=O (stereo partly shown) [Example 92] | 2.6 | 3.6
9 | CCn1cccc(N2C(=O)[C@@H](NC(=O)c3ccc(OC(F)(F)F)cc3)[C@H](c3c(F)cc(OC)cc3F)[C@@H]2C)c1=O [Example 93] | 2.6 | 68
10 | COc1cc(F)c([C@@H]2CN(c3cccn(C(F)F)c3=O)C(=O)[C@H]2NC(=O)c2ccc(Cl)cc2)c(F)c1 [Example 94] | 2.7 | 95
11 | COc1cc(F)c([C@@H]2CN(c3ccc[nH]c3=O)C(=O)[C@H]2NC(=O)c2ccc(OC(F)F)cc2)c(F)c1 [Example 95] | 2.7 | 160
12 | COc1cc(F)c([C@@H]2CN(c3cccn(CC4CC(F)(F)C4)c3=O)C(=O)[C@H]2NC(=O)c2ccc(OC(F)F)cc2)c(F)c1 [Example 96] | 2.7 | 46
13 | COc1cc(F)c([C@@H]2CN(c3cccn(CCN(C)C)c3=O)C(=O)[C@H]2NC(=O)c2ccc(OC(F)F)cc2)c(F)c1 [Example 97] | 2.7 | 350
14 | CCn1cccc(N2C[C@@H](c3c(F)cc(OC)cc3F)[C@H](NC(=O)c3ccc(Cl)cc3)C2=O)c1=O [Example 98] | 2.7 | 43
15 | COc1cc(F)c([C@@H]2CN(c3cccn(CCN4CCOCC4)c3=O)C(=O)[C@H]2NC(=O)c2ccc(OC(F)F)cc2)c(F)c1 [Example 99] | 2.7 | 330
16 | COCCn1cccc(N2C(=O)[C@@H](NC(=O)c3ccc(OC(F)(F)F)cc3)[C@H](c3c(F)cc(OC)cc3F)[C@@H]2C)c1=O [Example 100] | 2.7 | 22
17 | COc1cc(F)c([C@@H]2CN(c3cccn(CC(C)O)c3=O)C(=O)[C@H]2NC(=O)c2ccc(OC(F)F)cc2)c(F)c1 (stereo partly shown) [Example 104] | 2.9 | 120
18 | COCCn1cccc(N2C(=O)[C@@H](NC(=O)c3ccc(OC(F)F)cc3)[C@H](c3c(F)cc(OC)cc3F)[C@@H]2C)c1=O [Example 105] | 2.9 | 65
19 | COc1cc(NCCO)nc(N2C[C@@H](c3c(F)cc(OC)cc3F)[C@H](NC(=O)c3ccc(Cl)cc3)C2=O)c1 [Example 106] | 2.9 | 870
20 | COc1cc(F)c([C@@H]2CN(c3nccc(N4C[C@@H](C)N(C)[C@@H](C)C4)c3C(F)(F)F)C(=O)[C@H]2NC(=O)c2ccc(OC(F)F)cc2)c(F)c1 [Example 109] | 2.9 | 500
21 | COc1cc(F)c([C@@H]2CN(c3nc(C)ccc3F)C(=O)[C@H]2NC(=O)c2ccc(Cl)cc2)c(F)c1 [Example 111] | 3 | 1100
22 | COCC(CO)n1ccc(C)c(N2C[C@@H](c3c(F)cc(OC)cc3F)[C@H](NC(=O)c3ccc(OC(F)F)cc3)C2=O)c1=O (stereo partly shown) [Example 112] | 3 | 2.8
23 | COc1cc(F)c([C@@H]2CN(c3nc(N(C)C(C)=O)ccc3F)C(=O)[C@H]2NC(=O)c2ccc(OC(F)(F)F)cc2)c(F)c1 [Example 114] | 3 | 5.9
24 | COc1cc(F)c([C@@H]2CN(c3c(C)ccn(CCO)c3=O)C(=O)[C@H]2NC(=O)c2ccc(OC(F)(F)F)cc2)c(F)c1 [Example 115] | 3.1 | 2.4
25 | COc1cc(F)c([C@@H]2CN(c3cccn(C4CC4)c3=O)C(=O)[C@H]2NC(=O)c2ccc(C(F)(F)F)cc2)c(F)c1 [Example 116] | 3.1 | 34
26 | COc1cc(F)c([C@@H]2CN(c3nc(N4CC(F)(F)C4)ccc3F)C(=O)[C@H]2NC(=O)c2ccc(OC(F)F)cc2)c(F)c1 [Example 117] | 3.1 | 210

Further lines, results first:

Row | EC50 [1] [nM] | EC50 [2] [nM] | Compound
27 | 2.2 | 2.7 | COCCn1cccc(N2C[C@@H](c3ccc(OC)cc3F)[C@H](NC(=O)c3ccc(OC(F)F)cc3)C2=O)c1=O [Example 81]
28 | 2.2 | 5.3 | CCn1cccc(N2C[C@@H](c3ccc(OC)cc3F)[C@H](NC(=O)c3ccc(OC(F)(F)F)cc3)C2=O)c1=O [Example 82]
29 | 2.3 | 160 | COc1cc(F)c([C@@H]2CN(c3cccn(CCN(C)C)c3=O)C(=O)[C@H]2NC(=O)c2ccc(OC(F)(F)F)cc2)c(F)c1 [Example 85]
30 | 2.4 | 45 | COc1cc(F)c([C@@H]2CN(c3cccn(CC(C)O)c3=O)C(=O)[C@H]2NC(=O)c2ccc(OC(F)(F)F)cc2)c(F)c1 (stereo partly shown) [Example 89]
31 | 2.6 | 16 | COc1ccc([C@@H]2CN(c3cccn(CC(F)F)c3=O)C(=O)[C@H]2NC(=O)c2ccc(OC(F)F)cc2)cc1 [Example 91]
32 | 2.8 | 4.7 | O=C(N[C@@H]1C(=O)N(c2cccn(CCO)c2=O)C[C@H]1c1ccc(Cl)cc1)c1ccc(OC(F)(F)F)cc1 [Example 102]
33 | 2.8 | 1.9 | COc1cc(F)c([C@@H]2CN(c3cccn(CC(C)OC)c3=O)C(=O)[C@H]2NC(=O)c2ccc(OC(F)(F)F)cc2)c(F)c1 (stereo partly shown) [Example 103]
34 | 2.9 | 5.7 | COCCn1cccc(N2C[C@@H](c3ccc(Cl)cc3)[C@H](NC(=O)c3ccc(OC(F)(F)F)cc3)C2=O)c1=O [Example 107]
35 | 2.9 | 0.4 | COc1ccc([C@@H]2CN(c3c(C)ccn(CCO)c3=O)C(=O)[C@H]2NC(=O)c2ccc(OC(F)(F)F)cc2)cc1 [Example 108]
36 | 2.9 | 20 | O=C(N[C@@H]1C(=O)N(c2cccn(CCO)c2=O)C[C@H]1c1ccc(Cl)cc1)c1ccc(OC(F)F)cc1 [Example 110]
37 | 3 | 16 | COCCn1cccc(N2C[C@@H](c3c(F)cc(OC)cc3F)[C@H](NC(=O)c3ccc(OC(F)F)cc3)C2=O)c1=O [Example 113]
38 | 3.1 | 4.1 | COCC(CO)n1cccc(N2C[C@@H](c3ccc(Cl)cc3)[C@H](NC(=O)c3ccc(OC(F)F)cc3)C2=O)c1=O (stereo partly shown) [Example 118]
